From US10479792B2, “Compounds” (GlaxoSmithKline Intellectual Property Development Limited, priority 2015, dated 2019)

Columns and labels:
Leishmania donovani [1] = assay: Leishmania donovani intracellular assay (Assay 5); type: cell-based; settings: THP-1, 96 h, eGFP amastigotes in THP-1 cells, 96 h incubation, read-out: pEC50 value against Leishmania donovani (converted)
Procedure: Assay 5. Leishmania donovani Intracellular Assay
Compounds were dispensed into black 384-well assay plates (Greiner) by acoustic dispensing (LabCyte ECHO). For potency determinations, eleven-point, one in three dilution curves were generated, with a top concentration of 50 μM. THP-1 human monocytes cells were dispensed in T225 tissue culture flasks and differentiated using 30 nM of PMA, after 24 hours they were infected overnight using Leishmania donovani expressing Green Fluorescent Protein (eGFP) amastigotes in the same T225 tissue culture flasks at a multiplicity of infection of 10. Next, any remaining free amastigotes were washed away with PBS and the infected THP-1 cells were harvested by trypsinisation. The infected cells were then plated into 384-well plates containing the compounds to be tested, at 3000 cells per well in RPMI media with 2% FBS and 25 mM Sodium bicarbonate. After 96 h incubation at 37° C. in presence of 5% CO2, the plates were fixed with 4% formaldehyde for 30 minutes, washed with PBS and stained with 0.1 mg/mL of DAPI for 30 minutes and washed again with PBS. The plates were imaged on a Perkin Elmer Opera high-content imaging system using a 20× air objective with two expositions, one for DAPI stain and other for eGFP. Images were analysed using the Acapella building blocks system (Perkin Elmer). The image analysis algorithm first identified the THP-1 nuclei followed by demarcation of the cytoplasm and identification of intracellular amastigotes. This algorithm reported mean number of parasites per THP-1 cell, the percentage of infected THP-1 cells and the total number of THP-1 cells.

Leishmania donovani [2] = assay: Intramacrophage Leishmania donovani assay (Assay 1), average number of amastigotes per cell (potency readout); type: cell-based; settings: THP-1, 96 h, amastigotes in PMA-differentiated THP-1 macrophages, 96 h incubation, read-out: pEC50 value against Leishmania donovani (converted)
Procedure: Assay 1. Intramacrophage Leishmania donovani Assay
The intramacrophage Leishmania assay was performed using a modified version of the method described in De Rycker et al. (Antimicrob Agents Chemother. 2013 July; 57(7):2913-22. Comparison of a high-throughput high-content intracellular Leishmania donovani assay with an axenic amastigote assay. De Rycker M, Hallyburton I, Thomas J, Campbell L, Wyllie S, Joshi D, Cameron S, Gilbert I H, Wyatt P G, Frearson J A, Fairlamb A H, Gray D W.). Procedure: 350 nl of compound was pre-dispensed into 384 well sterile intermediary plates. For single point screening, amphotericin B was added to all wells of column 24 as a positive control (final concentration 2 μM) and DMSO to column 23. For potency determinations, ten-point, one in three dilution curves were created with the highest concentration being 50 μM and on each plate a control curve of amphotericin B was included. Controls were as follows: columns 11 and 12: DMSO, columns 23 and 24: amphotericin B (final concentration 2 μM). To the intermediary plates, 35 μl of THP-1 media was added and plates were shaken for >5 min to ensure complete mixing. THP-1 cells (8,000 per well, 50 μl) were plated into black clear-bottom 384 well plates (Corning) in presence of 20 nM PMA. After 20 min at RT, the plates were incubated at 37° C. under 5% CO2 in a humidified incubator for 75 h. The cells were then washed with […] sterile phosphate buffered saline (PBS) supplemented with 1 mM CaCl2, 0.5 mM MgCl2, 0.1% (w/v) bovine serum albumin (PBS-A) and amastigotes were added to all wells at a multiplicity of infection of 5 (40,000 amastigotes per well). After 40 min at RT, plates were returned to the incubator. Amastigotes were incubated in the presence of THP-1 macrophages for 16 h. Any remaining extracellular amastigotes were subsequently removed with an overflow wash of 1 mL PBS-A per well (wash buffer is being aspirated from the top of the well as it is being dispensed) followed by addition of 25 μl of the compound pre-dilutions using a Fluidx Ipette-pro pipetting station. The final dilution of each compound was 200-fold. Plates were incubated for 96 h and then washed (250 μl PBS-A) and fixed (4% (v/v) formaldehyde-PBS, 30 min, RT). After fixation, the wells were washed with 250 μl PBS, stained (10 μg/mL DAPI, 0.4 μg mL-1 HCS Cellmask Deep Red in PBS+0.1% (v/v) Triton X-100, 30 min, RT) and washed with 250 μl PBS. Finally, PBS+0.05% (v/v) thimerosal was added to the wells, the plates were sealed and imaged on a high-content microscope (GE IN Cell 2000) using a 10× objective. Image analysis was carried out with GE IN Cell Analyzer 1000 Workstation using the “Multi Target Analysis” module. Settings for segmentation were as follows: nuclei: minimum area: 142.384 μm2, sensitivity: 81, method: top-hat; cells: characteristic area: 2500 μm2, sensitivity: 60, method: multiscale top-hat; organelles (amastigotes): granule size 1-3, 3 scales, sensitivity: 90, detection in entire cell. For each well, i) THP-1 cell count (cytotoxicity readout) and ii) average number of amastigotes per cell (potency readout) were calculated, both in terms of pEC50 values.

| Compound | EC50 (Leishmania donovani [1]) [µM] | EC50 (Leishmania donovani [2]) [µM] |
| --- | --- | --- |
| C[C@@H]1CCN(C(=O)Nc2ccc(F)c(-c3ccn4c(N5CCOCC5)cnc4n3)c2)C1 [Example 34] | 0.126 to 10 | 0.251 to 10 |
| CCc1cc(-c2cc(NC(=O)N3CCCC3)ccc2F)nc2ncc(N3CCOCC3)n12 [Example 13, N-(3-(5-ethyl-3-morpholinoimidazo[1,2-a]pyrimidin-7-yl)-4-fluorophenyl)pyrrolidine-1-carboxamide] | 0.126 to 10 | 0.251 to 10 |
| O=C(Nc1ccc(F)c(-c2ccn3c(N4CCOCC4)cnc3n2)c1)N1CC[C@@H](F)C1 [Example 23, 3-fluoro-N-(4-fluoro-3-(3-morpholinoimidazo[1,2-a]pyrimidin-7-yl)phenyl)pyrrolidine-1-carboxamide] | 0.126 to 10 |  |
| CC(C)(C)OC(=O)N1CCOCC1c1cnc2nc(-c3cc(NC(=O)N4CCCC4)ccc3F)ccn12 (stereo not drawn) [Example 44, tert-butyl 3-(7-(2-fluoro-5-(pyrrolidine-1-carboxamido)phenyl)imidazo[1,2-a]pyrimidin-3-yl)morpholine-4-carboxylate] | 0.126 to 10 | 0.251 to 10 |
| O=C(Nc1ccc(F)c(-c2cnn3ccnc3n2)c1)N1CCCC1 [Example 11, N-(4-fluoro-3-(imidazo[1,2-b][1,2,4]triazin-3-yl)phenyl)pyrrolidine-1-carboxamide] |  | 12.6 to 20 |
| Cc1cc(-c2cc(NC(=O)N3CCCC3)ccc2F)nc2ncc(N3CCOCC3)n12 [Example 12, N-(4-fluoro-3-(5-methyl-3-morpholinoimidazo[1,2-a]pyrimidin-7-yl)phenyl)pyrrolidine-1-carboxamide] | 0.126 to 10 | 0.251 to 10 |
| N#Cc1ccc(NC(=O)N2CCCC2)cc1-c1ccn2c(N3CCOCC3)cnc2n1 [N-(4-cyano-3-(3-morpholinoimidazo[1,2-a]pyrimidin-7-yl)phenyl)pyrrolidine-1-carboxamide] |  | > 50.1 |
| CC1(C)CN(c2cnc3nc(-c4cc(NC(=O)N5CCCC5)ccc4F)ccn23)CCO1 [Example 41, N-(3-(3-(2,2-dimethylmorpholino)imidazo[1,2-a]pyrimidin-7-yl)-4-fluorophenyl)pyrrolidine-1-carboxamide] | 0.126 to 10 | 0.251 to 10 |
| O=C(Nc1cc(-c2ccn3c(N4CCOCC4)cnc3n2)c(F)cc1F)N1CCCC1 [Example 46, N-(2,4-difluoro-5-(3-morpholinoimidazo[1,2-a]pyrimidin-7-yl)phenyl)pyrrolidine-1-carboxamide] | 0.126 to 10 | > 50.1 |
| CC1(C)CCN(C(=O)Nc2ccc(F)c(-c3ccn4c(N5CCOCC5)cnc4n3)c2)C1 [N-(4-fluoro-3-(3-morpholinoimidazo[1,2-a]pyrimidin-7-yl)phenyl)-3,3-dimethylpyrrolidine-1-carboxamide] |  | > 50.1 |
| CN1CCOCC1c1cnc2nc(-c3cc(NC(=O)N4CCCC4)ccc3F)ccn12 (stereo not drawn) [Example 43, N-(4-fluoro-3-(3-(4-methylmorpholin-3-yl)imidazo[1,2-a]pyrimidin-7-yl)phenyl)pyrrolidine-1-carboxamide] | 0.126 to 10 | 0.251 to 10 |
| Cc1nc(C)c(C(=O)Nc2ccc(F)c(-c3ccn4c(N5CCOCC5)cnc4n3)c2)o1 [Example 39, N-(4-fluoro-3-(3-morpholinoimidazo[1,2-a]pyrimidin-7-yl)phenyl)-2,4-dimethyloxazole-5-carboxamide] | 0.126 to 10 | 0.251 to 10 |
| CC(C)c1cnc2nc(-c3cc(NC(=O)N4CCCC4)ccc3F)ccn12 [Example 18, N-(4-fluoro-3-(3-isopropylimidazo[1,2-a]pyrimidin-7-yl)phenyl)pyrrolidine-1-carboxamide] | 0.126 to 10 | 0.251 to 10 |
| Cc1cc(F)c(-c2ccn3c(N4CCOCC4)cnc3n2)cc1NC(=O)N1CCCC1 [N-(4-fluoro-2-methyl-5-(3-morpholinoimidazo[1,2-a]pyrimidin-7-yl)phenyl)pyrrolidine-1-carboxamide] |  | > 50.1 |
| O=C1CN(c2cnc3nc(-c4cc(NC(=O)N5CCCC5)ccc4F)ccn23)CCN1 [Example 52, N-(4-fluoro-3-(3-(3-oxopiperazin-1-yl)imidazo[1,2-a]pyrimidin-7-yl)phenyl)pyrrolidine-1-carboxamide] |  | > 50.1 |
| CC1COCCN1c1cnc2nc(-c3cc(NC(=O)N4CCCC4)ccc3F)ccn12 (stereo not drawn) [Example 31, N-(4-fluoro-3-(3-(3-methylmorpholino)imidazo[1,2-a]pyrimidin-7-yl)phenyl)pyrrolidine-1-carboxamide] | 0.126 to 10 | 0.251 to 10 |
| CC1(C)CN(C(=O)Nc2ccc(F)c(-c3ccn4c(N5CCOCC5)cnc4n3)c2)C1 [N-(4-fluoro-3-(3-morpholinoimidazo[1,2-a]pyrimidin-7-yl)phenyl)-3,3-dimethylazetidine-1-carboxamide] |  | > 50.1 |
| O=C(Nc1cccc(-c2cnn3c(-c4ccccc4)cnc3n2)c1)N1CCCC1 [Example 10, N-(3-(7-phenylimidazo[1,2-b][1,2,4]triazin-3-yl)phenyl)pyrrolidine-1-carboxamide] |  | 0.251 to 10 |
| O=C(Nc1ccc(F)c(-c2ccn3c(CC4CCCO4)cnc3n2)c1)N1CCCC1 (stereo not drawn) [Example 45, N-(4-fluoro-3-(3-((tetrahydrofuran-2-yl)methyl)imidazo[1,2-a]pyrimidin-7-yl)phenyl)pyrrolidine-1-carboxamide] | 0.126 to 10 |  |
| O=C(Nc1ccc(F)c(-c2cnn3c(N4CCOCC4)cnc3n2)c1)N1CCCC1 [Example 8, N-(4-fluoro-3-(7-morpholinoimidazo[1,2-b][1,2,4]triazin-3-yl)phenyl)pyrrolidine-1-carboxamide] |  | 0.251 to 10 |
| O=C(Nc1ccc(F)c(-c2ccn3c(N4CCOCC4)cnc3n2)c1)N1CCC1 [Example 51, N-(4-fluoro-3-(3-morpholinoimidazo[1,2-a]pyrimidin-7-yl)phenyl)azetidine-1-carboxamide] | 0.126 to 10 |  |
| O=C(Nc1ccc(F)c(-c2cnn3c(Br)cnc3n2)c1)N1CCCC1 [Example 6, N-(3-(7-bromoimidazo[1,2-b][1,2,4]triazin-3-yl)-4-fluorophenyl)pyrrolidine-1-carboxamide] |  | 0.251 to 10 |
| O=C(Nc1cccc(-c2cnn3c(N4CCOCC4)cnc3n2)c1)N1CCCC1 [Example 9, N-(3-(7-morpholinoimidazo[1,2-b][1,2,4]triazin-3-yl)phenyl)pyrrolidine-1-carboxamide] |  | 0.251 to 10 |
| C[C@H]1CCN(C(=O)Nc2ccc(F)c(-c3ccn4c(N5CCOCC5)cnc4n3)c2)C1 [Example 34a] |  | 0.251 to 10 |
| CC1(C)CCCN1C(=O)Nc1ccc(F)c(-c2ccn3c(N4CCOCC4)cnc3n2)c1 [N-(4-fluoro-3-(3-morpholinoimidazo[1,2-a]pyrimidin-7-yl)phenyl)-2,2-dimethylpyrrolidine-1-carboxamide] |  | > 50.1 |
| O=C(Nc1ccc(F)c(-c2ccn3c(C4COCCN4)cnc3n2)c1)N1CCCC1 (stereo not drawn) [Example 38, N-(4-fluoro-3-(3-(morpholin-3-yl)imidazo[1,2-a]pyrimidin-7-yl)phenyl)pyrrolidine-1-carboxamide] |  | 12.6 to 20 |
